Experimental findings from patent US20260234211A1, “POLYPEPTIDE HAVING MODIFIED STRUCTURE AND USE THEREOF” (Guangdong Raynovent Biotech Co., Ltd., priority 2023, published 2026) are described below.

SMILES strings stand for the structures. Read-outs that look alike come from different tables or passages of the source. Numbered stars: 1 amine (or outer) side, 2 acyl side, 3 side chain; on linkers, the order of the positions; unused ones are H or OH. Bridge positions count the residues as written; N and C are the ends. Square brackets hold non-standard residues; d marks the D form. Peptide text beside a SMILES is read from it. X1 = O=C(O)CCCCCCCCCCCCCCCCCCC(=O)N[C@@H](CCC(=O)NCCOCCOCC(=O)NCCCC[C@H](N[*:2])C(=O)[*:1])C(=O)O; αMeL = CC(C)C[C@](C)(N)C(=O)O; Aib = CC(C)(N)C(=O)O

Series [1] deals with T1, GLP-1R (Homo sapiens, UniProt P43220).
T1 construct: host or cells: HEK293
The series is described as follows: In vitro GLP-1R agonistic activity test (cAMP, HEK293 cell line). It counts as cell-based. The protocol: (§1) The cell lines were constructed by Pharmaron Inc. See details in the table below.
(§2) The test compounds were diluted at a 5-fold dilution factor in 10 points, starting from an initial concentration of 200 nM.
(§3) 1) The cell lines were cultured respectively in complete medium at 37° C. and 5% CO2.
(§4) 1) Eu-cAMP tracer was freeze-thawed and diluted 50 fold with detection buffer; and Ulight-anti-cAMP was freeze-thawed and diluted 150 fold with detection buffer.
(§5) 3) 10 μL of Eu-cAMP tracer was added and then 10 μL of Uligh-anti-cAMP was added into experimental wells respectively.
(§6) 4) The reaction plate was centrifuged at 200 g at room temperature for 30 s and left for stand at 25° C. for 1 h.

The nature of series [2]: Pharmacokinetic properties in Cynomolgus macaques. The settings on record: cynomolgus monkey, in vivo, male cynomolgus macaques, plasma. The protocol:
To test the pharmacokinetic profiles of the compounds in Cynomolgus macaques.
Non-juvenile male cynomolgus macaques were used for experiment, 3 cynomolgus macaques for each compound. Whole blood was collected at time points of 1 h, 2 h, 4 h, 8 h, 16 h, 24 h, 48 h, 72 h, 120 h, 168 h and 240 h after administration, to prepare plasma. The drug concentration was analyzed by LC-MS/MS method, and the pharmacokinetic parameters were calculated using Phoenix WinNonlin software.

Series [3] deals with T2, GCGR (Homo sapiens, UniProt P47871).
T2 construct: host or cells: HEK293
Nature of the series: In vitro GCGR agonistic activity test (cAMP, HEK293 cell line). The note with it: cAMP, HEK293 cells expressing GCGR; read-out: GCG EC50. It is filed as cell-based. The protocol: as §1, §2, §3
2) After digestion with TrypLE, the cells were re-suspended in experimental buffer respectively, and inoculated in a CulturPlate-384 cell culture plate at a density of 2000 cells/well and at a volume of 15 μL/well.
as §4
2) 5 μL of the test compounds were added respectively into experimental wells of the CulturPlate-384 cell culture plate, which was centrifuged at 200 g for 30 s, and left for stand at 37° C. for 30 min.
as §5, §6
5) Envision 2105 was used to collect data, with excitation light at 340 nm and emission light at 665 nm and 615 nm.

Series [4] in a line: Metabolic stability in human kidney S9. It counts as in vitro ADME. The settings on record: human, s9. The protocol:
The metabolic stability of the compounds in human kidney was evaluated to determine whether the drugs would be degraded by metabolic enzymes in the kidney to affect the efficacies and pharmacokinetics. 1. Relevant solutions were formulated. 2. a) With cofactors (NADPH & UDPGA): NADPH and UDPGA were added during the incubation. […] H2O was added into the culture solution. The final concentration of KS9 Fractions was 1 mg/mL. The mixture was pre-heated at 37° C. for 10 min. […] In this study, 7-hydroxy-coumarin and Raloxifene were used as the positive control. The final concentration of the positive control compounds was 0.2 μM, and the final concentration of the test compound was 1 μM. The culture solution was incubated in water bath at 37° C. 4. At 0.5, 5, 15, 30 and 60 min, volume aliquots were taken from the reaction solution and the reaction was stopped by adding acetonitrile. The samples were centrifuged for 30 min. The supernatant was taken and mixed with ultrapure water for subsequent LC-MS/MS analysis. 5. Data analysis: All calculation was conducted using Microsoft Excel. Peak areas were determined and slope values were calculated based on the extracted ion chromatograms.

The mark [5] stands for this setting: cAMP, HEK293 cells expressing GLP-1R, read-out: GLP-1 EC50.

T1 sequence (P43220 24-463, species assumed): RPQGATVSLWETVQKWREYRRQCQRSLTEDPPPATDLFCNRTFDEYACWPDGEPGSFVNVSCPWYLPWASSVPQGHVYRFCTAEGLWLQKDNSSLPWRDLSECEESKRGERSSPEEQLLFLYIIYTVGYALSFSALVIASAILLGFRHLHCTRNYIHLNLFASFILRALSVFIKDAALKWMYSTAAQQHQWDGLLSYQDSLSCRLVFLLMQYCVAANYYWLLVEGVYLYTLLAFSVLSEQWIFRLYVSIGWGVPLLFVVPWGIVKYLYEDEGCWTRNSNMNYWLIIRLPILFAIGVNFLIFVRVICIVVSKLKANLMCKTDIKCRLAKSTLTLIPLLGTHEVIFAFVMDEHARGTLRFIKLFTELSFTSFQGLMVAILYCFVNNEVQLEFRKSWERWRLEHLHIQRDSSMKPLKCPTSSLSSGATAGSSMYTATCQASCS
T2 sequence (P47871 26-477, species assumed): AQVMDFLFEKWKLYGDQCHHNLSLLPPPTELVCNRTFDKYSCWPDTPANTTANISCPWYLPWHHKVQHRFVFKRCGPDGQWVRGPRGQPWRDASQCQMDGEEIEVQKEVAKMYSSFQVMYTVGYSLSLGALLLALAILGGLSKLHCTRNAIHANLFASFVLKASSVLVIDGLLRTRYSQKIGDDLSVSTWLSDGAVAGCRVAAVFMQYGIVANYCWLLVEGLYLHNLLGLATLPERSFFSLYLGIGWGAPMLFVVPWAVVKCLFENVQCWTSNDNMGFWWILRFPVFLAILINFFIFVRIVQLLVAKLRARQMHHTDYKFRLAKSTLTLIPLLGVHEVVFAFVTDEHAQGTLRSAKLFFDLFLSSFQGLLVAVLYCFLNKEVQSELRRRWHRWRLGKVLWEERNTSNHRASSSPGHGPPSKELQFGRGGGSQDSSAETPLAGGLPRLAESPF

One may read the EC50 as the concentration that produces a half-maximal response. Broadly, the Cmax is the maximum level reached in the sampled fluid or tissue. One may read the Tmax as the time at which the peak concentration occurs. `CC[C@H](C)[C@H](NC(=O)[C@H](Cc1ccccc1)NC(=O)[C@H](C)NC(=O)C(C)(C)NC(=O)[C@H](CCC(N)=O)NC(=O)[C@H](C)NC(=O)[C@@H]1CCCCNC(=O)CN(C(=O)COCCOCCNC(=O)CC[C@H](NC(=O)CCCCCCCCCCCCCCCCCCC(=O)O)C(=O)O)CC(=O)NCCCC[C@H](NC(=O)[C@](C)(CC(C)C)NC(=O)[C@@H](NC(=O)[C@H](CO)NC(=O)[C@H](Cc2ccc(O)cc2)NC(=O)[C@H](CC(=O)O)NC(=O)[C@H](CO)NC(=O)[C@@H](NC(=O)[C@H](Cc2ccccc2)NC(=O)[C@@H](NC(=O)CNC(=O)[C@H](CCC(N)=O)NC(=O)C(C)(C)NC(=O)[C@@H](N)Cc2ccc(O)cc2)[C@@H](C)O)[C@@H](C)O)[C@@H](C)CC)C(=O)N[C@@H](CC(=O)O)C(=O)N[C@@H](CCCCN)C(=O)N1)C(=O)N[C@@H](CCC(=O)O)C(=O)N[C@@H](Cc1ccc(O)cc1)C(=O)N[C@@H](CC(C)C)C(=O)N[C@@H](CC(C)C)C(=O)N[C@@H](CCCCN)C(=O)NCC(=O)NCC(=O)N1CCC[C@H]1C(=O)N[C@@H](CO)C(=O)N[C@@H](CO)C(=O)NCC(=O)N[C@@H](C)C(=O)N1CCC[C@H]1C(=O)N1CCC[C@H]1C(=O)N1CCC[C@H]1C(=O)N[C@@H](CO)C(N)=O` [Example 38, YAibQGT FTSDY SIα- MeL^1KD K^1KAQAib AFIEY LLKGG PSSGA PPPS-NH2 (SEQ ID NO: 38)] showed an EC50 in series [1] of 2 pM. Besides, in series [2] (read-out: AUC0-240 h), the AUC(0-t) stood at 3.88 µM·h. For the same molecule, in series [2] (read-out: AUCINF), the AUC(0-inf) is 4.41 µM·h. Besides, the Cmax in series [2] (read-out: Cmax) stood at 33.9 nM. Moreover, in series [2] (read-out: T1/2 (converted)), the half-life is 74.9 h. Besides, the Tmax in series [2] (read-out: Tmax) amounted to 21.3 h.
Turning to `CC[C@H](C)[C@H](NC(=O)[C@H](Cc1ccccc1)NC(=O)[C@H](C)NC(=O)C(C)(C)NC(=O)[C@H](CCC(N)=O)NC(=O)[C@H](C)NC(=O)[C@@H]1CCCCNC(=O)CN(C(=O)COCCOCCNC(=O)CC[C@H](NC(=O)CCCCCCCCCCCCCCCCCCC(=O)O)C(=O)O)CC(=O)NCCCC[C@H](NC(=O)[C@](C)(CC(C)C)NC(=O)[C@@H](NC(=O)[C@H](CO)NC(=O)[C@H](Cc2ccc(O)cc2)NC(=O)[C@H](CC(=O)O)NC(=O)[C@H](CO)NC(=O)[C@@H](NC(=O)[C@H](Cc2ccccc2)NC(=O)[C@@H](NC(=O)CNC(=O)[C@H](CCC(N)=O)NC(=O)C(C)(C)NC(=O)[C@@H](N)Cc2ccc(O)cc2)[C@@H](C)O)[C@@H](C)O)[C@@H](C)CC)C(=O)N[C@@H](CC(=O)O)C(=O)N[C@@H](CCCCN)C(=O)N1)C(=O)N[C@@H](CCC(N)=O)C(=O)N[C@@H](Cc1ccc(O)cc1)C(=O)N[C@@H](CC(C)C)C(=O)N[C@@H](CC(C)C)C(=O)N[C@@H](CCC(=O)O)C(=O)NCC(=O)NCC(=O)N1CCC[C@H]1C(=O)N[C@@H](CO)C(=O)N[C@@H](CO)C(=O)NCC(=O)N[C@@H](C)C(=O)N1CCC[C@H]1C(=O)N1CCC[C@H]1C(=O)N1CCC[C@H]1C(=O)N[C@@H](CO)C(N)=O` [Example 42, YAibQGT FTSDY SIα- MeL^1KD K^1KAQAib AFIQY LLEGG PSSGA PPPS-NH2 (SEQ ID NO: 39)], the 50% effective concentration (EC50) in series [1] (setting [5]) is 7 pM; in series [3], 25 pM.
Turning to `CC[C@H](C)[C@H](NC(=O)[C@H](Cc1ccccc1)NC(=O)[C@H](C)NC(=O)C(C)(C)NC(=O)[C@H](CCC(N)=O)NC(=O)[C@H](C)NC(=O)[C@@H]1CCCCNC(=O)CN(C(=O)COCCOCCNC(=O)[C@@H](N)CCCCNC(=O)CC[C@H](NC(=O)CCCCCCCCCCCCCCCCCCC(=O)O)C(=O)O)CC(=O)NCCCC[C@H](NC(=O)[C@](C)(CC(C)C)NC(=O)[C@@H](NC(=O)[C@H](CO)NC(=O)[C@H](Cc2ccc(O)cc2)NC(=O)[C@H](CC(=O)O)NC(=O)[C@H](CO)NC(=O)[C@@H](NC(=O)[C@H](Cc2ccccc2)NC(=O)[C@@H](NC(=O)CNC(=O)[C@H](CCC(N)=O)NC(=O)C(C)(C)NC(=O)[C@@H](N)Cc2ccc(O)cc2)[C@@H](C)O)[C@@H](C)O)[C@@H](C)CC)C(=O)N[C@@H](CC(=O)O)C(=O)N[C@@H](CCCCN)C(=O)N1)C(=O)N[C@@H](CCC(=O)O)C(=O)N[C@@H](Cc1ccc(O)cc1)C(=O)N[C@@H](CC(C)C)C(=O)N[C@@H](CC(C)C)C(=O)N[C@@H](CCCCN)C(=O)NCC(=O)NCC(=O)N1CCC[C@H]1C(=O)N[C@@H](CO)C(=O)N[C@@H](CO)C(=O)NCC(=O)N[C@@H](C)C(=O)N1CCC[C@H]1C(=O)N1CCC[C@H]1C(=O)N1CCC[C@H]1C(=O)N[C@@H](CO)C(N)=O` [Example 54, YAibQGT FTSDY SIα- MeL^1KD K^1KAQAib AFIEY LLKGG PSSGA PPPS-NH2 (SEQ ID NO: 38)], the EC50 in series [1] (setting [5]) stood at 2 pM.
Broadly, the microsomal CLint is the rate of metabolic loss divided by the concentration. Low readings indicate greater metabolic stability, high ones faster metabolism. For `CC[C@H](C)[C@H](NC(=O)[C@H](Cc1ccccc1)NC(=O)[C@@H]1CCC(=O)N[C@@H](CCCCNC(=O)COCCOCCNC(=O)CC[C@H](NC(=O)CCCCCCCCCCCCCCCCCCC(=O)O)C(=O)O)C(=O)NCCCC[C@H](NC(=O)[C@H](CCCCN)NC(=O)[C@H](CC(=O)O)NC(=O)[C@H](CC(C)C)NC(=O)[C@](C)(CC(C)C)NC(=O)[C@@H](NC(=O)[C@H](CO)NC(=O)[C@H](Cc2ccc(O)cc2)NC(=O)[C@H](CC(=O)O)NC(=O)[C@H](CO)NC(=O)[C@@H](NC(=O)[C@H](Cc2ccccc2)NC(=O)[C@@H](NC(=O)CNC(=O)[C@H](CCC(N)=O)NC(=O)C(C)(C)NC(=O)[C@@H](N)Cc2ccc(O)cc2)[C@@H](C)O)[C@@H](C)O)[C@@H](C)CC)C(=O)N[C@@H](C)C(=O)N[C@@H](CCC(N)=O)C(=O)NC(C)(C)C(=O)N1)C(=O)N[C@@H](CCC(=O)O)C(=O)N[C@@H](Cc1ccc(O)cc1)C(=O)N[C@@H](CC(C)C)C(=O)N[C@@H](CC(C)C)C(=O)N[C@@H](CCC(=O)O)C(=O)NCC(=O)NCC(=O)N1CCC[C@H]1C(=O)N[C@@H](CO)C(=O)N[C@@H](CO)C(=O)NCC(=O)N[C@@H](C)C(=O)N1CCC[C@H]1C(=O)N1CCC[C@H]1C(=O)N1CCC[C@H]1C(=O)N[C@@H](CO)C(N)=O` [Example 10, YAibQGT FTSDY SIα- MeLLD K^1KAQAib ^1EFIEY LLEGG PSSGA PPPS-NH2 (SEQ ID NO: 16)] (H-Y[Aib]QGTFTSDYSI[αMeL]LDKKAQ[Aib]EFIEYLLEGGPSSGAPPPS-NH2; linker 17-21 via X1 (inferred); N-terminus assumed), in series [4], the half-life at 1 μM is over 3.08 h and the microsomal CLint at 1 μM is under 3.75 µL/min/mg. For the same molecule, the EC50 in series [1] (setting [5]) came to 9 pM.
With `CC[C@H](C)[C@H](NC(=O)[C@H](Cc1ccccc1)NC(=O)[C@H](C)NC(=O)C(C)(C)NC(=O)[C@H](CCC(N)=O)NC(=O)[C@H](C)NC(=O)[C@@H]1CCCCNC(=O)CN(C(=O)COCCOCCNC(=O)CC[C@H](NC(=O)CCCCCCCCCCCCCCCCCCC(=O)O)C(=O)O)CC(=O)NCCCC[C@H](NC(=O)[C@](C)(CC(C)C)NC(=O)[C@@H](NC(=O)[C@H](CO)NC(=O)[C@H](Cc2ccc(O)cc2)NC(=O)[C@H](CC(=O)O)NC(=O)[C@H](CO)NC(=O)[C@@H](NC(=O)[C@](C)(Cc2ccccc2)NC(=O)[C@@H](NC(=O)CNC(=O)[C@H](CCC(N)=O)NC(=O)C(C)(C)NC(=O)[C@@H](N)Cc2ccc(O)cc2)[C@@H](C)O)[C@@H](C)O)[C@@H](C)CC)C(=O)N[C@@H](CC(=O)O)C(=O)N[C@@H](CCCCN)C(=O)N1)C(=O)N[C@@H](CCC(=O)O)C(=O)N[C@@H](Cc1ccc(O)cc1)C(=O)N[C@@H](CC(C)C)C(=O)N[C@@H](CC(C)C)C(=O)N[C@@H](CCCCN)C(=O)NCC(=O)NCC(=O)N1CCC[C@H]1C(=O)N[C@@H](CO)C(=O)N[C@@H](CO)C(=O)NCC(=O)N[C@@H](C)C(=O)N1CCC[C@H]1C(=O)N1CCC[C@H]1C(=O)N1CCC[C@H]1C(=O)N[C@@H](CO)C(N)=O` [Example 51, YAibQGT α-MeFTSDY SIα- MeL^1KD K^1KAQAib AFIEY LLKGG PSSGA PPPS-NH2 (SEQ ID NO: 43)], the EC50 turned out to be 1 pM in series [1] (setting [5]) and 25 pM in series [3].
